For data set [1], the system named is rodent test subjects. Description: Analgesia. The conditions noted are these: for analgesia efficacy: in vivo; for analgesia compared with morphine: rodent test subjects. Type of data set: in vivo.
In data set [2] the test system is rodent test subjects. The data set can be described thus: Respiratory depression in rodents. Particulars: vs morphine.
In data set [3] the test system is rodent test subjects. Description: Proconvulsant activity in rodent tests.
In the next data set the target is delta opioid receptor (Mus musculus, UniProt P32300). Description: Agonism at delta opioid receptor.
The subject of the next data set is mu opioid receptor. Description: Agonism at mu opioid receptor.
In data set [4] the test system is opioid receptors (mu/delta). Description: Opioid receptor ligand selectivity / mixed agonist character.
The subject of data set [5] is rodent test subjects. Description: Muscle rigidity in rodents. The conditions noted are these: vs morphine.
Data set [6] deals with pressure nociception in rats. The data set can be described thus: Analgesic activity, tail pinch assay in rats (i.v.). Format: in vivo, rat (male Sprague-Dawley CD strain). Particulars: iv, 5 min, rat tail pinch, 5 minutes after injection, read-out: Antinociceptive ED50 (half-maximum effective dose). The method, then:
Analgesic activity was assessed by the tail pinch assay in rats (male Sprague-Dawley CD strain, weight approximately 300 g) after intravenous (i.v.) tail vein injection. A group of 6 to 8 animals was injected i.v. with compound in sterile 5% dextrose solution at a concentration of 1-5 mg/mL. Five minutes after injection, an artery clamp (Fisher Scientific Co., self-closing artery forcep, catalog #08-905) was placed on the tail about one inch from the tip of the tail to induce pressure nociception for a short duration (maximum of 20 seconds). The nociceptive response was judged by any sign of discomfort, such as running, squeaking, or turning around to bite the clamp. The dose-response curve was plotted for each compound.

Chain of delta opioid receptor (P32300 whole entry): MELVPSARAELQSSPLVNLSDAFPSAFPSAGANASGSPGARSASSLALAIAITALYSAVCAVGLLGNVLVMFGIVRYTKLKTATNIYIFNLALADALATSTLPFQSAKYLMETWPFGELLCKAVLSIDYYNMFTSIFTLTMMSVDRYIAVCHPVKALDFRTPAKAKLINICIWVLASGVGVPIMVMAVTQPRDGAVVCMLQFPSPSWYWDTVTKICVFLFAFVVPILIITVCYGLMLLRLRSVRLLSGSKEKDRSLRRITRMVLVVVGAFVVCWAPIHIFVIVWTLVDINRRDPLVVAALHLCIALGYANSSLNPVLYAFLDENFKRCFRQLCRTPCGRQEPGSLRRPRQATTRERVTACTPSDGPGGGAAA

The ED50 is the dose that gives a 50% effect, or the effect in half of the subjects. Regarding `C=CCN1C[C@H](C)N([C@@H](c2cccc(O)c2)c2cccc(C(=O)N(CC)CC)c2)C[C@H]1C` [Example 1, (+)-3-((αR)-α-((2S,5R)-4-Allyl-2,5-dimethyl-1-piperazinyl)-3-hydroxybenzyl)-N,N-diethylbenzamide], in the data set with rodent test subjects [1], the analgesia efficacy entry was “efficacious in mediating analgesia” and the “analgesia compared with morphine” value was “comparable to mu-analgesic morphine”. The respiratory depression result in the data set with rodent test subjects [2] was “much reduced extent”. Further, the proconvulsant activity result in the data set with rodent test subjects [3] is “free of proconvulsant activity”. Further, at delta opioid receptor, the “agonism at delta opioid receptor” value was “agonism”. In addition, in the data set on mu opioid receptor, the “agonism at mu opioid receptor” value was “agonism”. For the same compound, in data set [4], the opioid agonist character entry was “mixed mu/delta opioid agonists” and the “opioid receptor ligand selectivity” value is reported as “highly selective”. Besides, the muscle rigidity entry in the data set on rodent test subjects [5] is on record as “much reduced extent”. Further, in data set [6], the ED50 was determined as 0.35 mg/kg.

As to `C=CCN1C[C@H](C)N([C@@H](c2cccc(O)c2)c2cccc(C(=O)N(C)c3ccccc3)c2)C[C@H]1C` [Example 9, (+)-3-((αR)-α-((2S,5R)-4-Allyl-2.5dimethyl-1-piperazinyl)-3-hydroxybenzyl)-N-methyl-N-phenylbenzamide], in the data set on rodent test subjects [1], the analgesia efficacy entry was “efficacious in mediating analgesia” and the “analgesia compared with morphine” value is reported as “comparable to mu-analgesic morphine”. For the same compound, the respiratory depression result with rodent test subjects [2] is recorded as “much reduced extent”. Moreover, in the data set with rodent test subjects [3], the proconvulsant activity entry was “free of proconvulsant activity”. The “agonism at delta opioid receptor” value at delta opioid receptor is on record as “agonism”. In the data set with mu opioid receptor, the “agonism at mu opioid receptor” value is “agonism”. For the same compound, in data set [4], the opioid agonist character result is recorded as “mixed mu/delta opioid agonists” and the “opioid receptor ligand selectivity” value is listed as “highly selective”. Moreover, the muscle rigidity entry with rodent test subjects [5] is recorded as “much reduced extent”.

For the compound `C=CCN1C[C@H](C)N([C@@H](c2cccc(O)c2)c2cccc(C(=O)N(C)c3ccc(F)cc3)c2)C[C@H]1C` [Example 10, (+)-3-((αR)-α-((2S,5R)-4-Allyl-2,5-dimethyl-1-piperazinyl)-3-hydroxybenzyl)-N-(4-fluorophenyl)-N-methylbenzamide], in the data set with rodent test subjects [1], the analgesia efficacy entry is listed as “efficacious in mediating analgesia” and the “analgesia compared with morphine” value is “comparable to mu-analgesic morphine”. The respiratory depression entry in the data set with rodent test subjects [2] is “much reduced extent”. In addition, in the data set on rodent test subjects [3], the proconvulsant activity entry is listed as “free of proconvulsant activity”. Moreover, the “agonism at delta opioid receptor” value on delta opioid receptor is recorded as “agonism”. Besides, in the data set on mu opioid receptor, the “agonism at mu opioid receptor” value was “agonism”. In data set [4], the opioid agonist character entry is reported as “mixed mu/delta opioid agonists” and the “opioid receptor ligand selectivity” value is reported as “highly selective”. In addition, the muscle rigidity entry in the data set on rodent test subjects [5] is given as “much reduced extent”.

As to `C=CCN1C[C@H](C)N([C@@H](c2cccc(O)c2)c2cccc(C(=O)N(CC)c3ccccc3)c2)C[C@H]1C` [Example 12, (+)-3-((αR)-α-((2S,5R)-4-Allyl-2,5-dimethyl-1-piperazinyl)-3-hydroxybenzyl)-N-ethyl-N-phenylbenzamide], in the data set on rodent test subjects [1], the analgesia efficacy result is listed as “efficacious in mediating analgesia” and the “analgesia compared with morphine” value is “comparable to mu-analgesic morphine”. The respiratory depression entry in the data set with rodent test subjects [2] is “much reduced extent”. For the same compound, in the data set with rodent test subjects [3], the proconvulsant activity entry is given as “free of proconvulsant activity”. Also, at delta opioid receptor, the “agonism at delta opioid receptor” value is listed as “agonism”. Besides, in the data set with mu opioid receptor, the “agonism at mu opioid receptor” value is listed as “agonism”. In data set [4], the opioid agonist character result is reported as “mixed mu/delta opioid agonists” and the “opioid receptor ligand selectivity” value is “highly selective”. For the same compound, in the data set on rodent test subjects [5], the muscle rigidity result is “much reduced extent”.

On to `C=CCN1C[C@H](C)N([C@@H](c2cccc(O)c2)c2cccc(C(=O)N(C)c3cccc(F)c3)c2)C[C@H]1C` [Example 16, (+)-3-((αR)-α-((2S,5R)-4-Allyl-2,5-dimethyl-1-piperazinyl)-3-hydroxybenzyl)-N-(3-fluorophenyl)-N-methylbenzamide], for which, in the data set on rodent test subjects [1], the analgesia efficacy entry is “efficacious in mediating analgesia” and the “analgesia compared with morphine” value is on record as “comparable to mu-analgesic morphine”. In addition, the respiratory depression entry with rodent test subjects [2] was “much reduced extent”. Moreover, in the data set on rodent test subjects [3], the proconvulsant activity result was “free of proconvulsant activity”. Besides, the “agonism at delta opioid receptor” value on delta opioid receptor is reported as “agonism”. Also, the “agonism at mu opioid receptor” value in the data set with mu opioid receptor is “agonism”. In addition, in data set [4], the opioid agonist character result was “mixed mu/delta opioid agonists” and the “opioid receptor ligand selectivity” value is recorded as “highly selective”. For the same compound, the muscle rigidity result in the data set on rodent test subjects [5] is “much reduced extent”. For the same compound, in data set [6], the ED50 worked out at 0.03 mg/kg.

With `C=CCN1C[C@H](C)N([C@@H](c2cccc(O)c2)c2cccc(C(=O)N(CCC)c3ccccc3)c2)C[C@H]1C` [Example 27, (+)-3-((αR)-α-((2S,5R)-4-Allyl-2.5-dimethyl-1-piperazinyl)-3-hydroxybenzyl)-N-phenyl-N-propylbenzamide], in the data set with rodent test subjects [1], the analgesia efficacy result is on record as “efficacious in mediating analgesia” and the “analgesia compared with morphine” value is listed as “comparable to mu-analgesic morphine”. Moreover, the respiratory depression result with rodent test subjects [2] was “much reduced extent”. In the data set on rodent test subjects [3], the proconvulsant activity result is on record as “free of proconvulsant activity”. The “agonism at delta opioid receptor” value on delta opioid receptor is reported as “agonism”. In addition, the “agonism at mu opioid receptor” value with mu opioid receptor is on record as “agonism”. Moreover, in data set [4], the opioid agonist character result is “mixed mu/delta opioid agonists” and the “opioid receptor ligand selectivity” value is reported as “highly selective”. The muscle rigidity entry with rodent test subjects [5] is “much reduced extent”. For the same compound, the ED50 in data set [6] amounted to 0.04 mg/kg.

Turning to `C=CCN1C[C@H](C)N([C@@H](c2cccc(O)c2)c2cccc(C(=O)N(CC)c3ccc(F)cc3)c2)C[C@H]1C` [Example 28, (+)-3-((αR)-α-((2S,5R)-4-Allyl-2,5-dimethyl-1-piperazinyl)-3-hydroxybenzyl)-N-ethyl-N-(4-fluorophenyl)benzamide], in the data set on rodent test subjects [1], the analgesia efficacy entry is “efficacious in mediating analgesia” and the “analgesia compared with morphine” value is “comparable to mu-analgesic morphine”. For the same compound, the respiratory depression result with rodent test subjects [2] is on record as “much reduced extent”. Moreover, the proconvulsant activity result in the data set on rodent test subjects [3] was “free of proconvulsant activity”. Besides, the “agonism at delta opioid receptor” value at delta opioid receptor was “agonism”. The “agonism at mu opioid receptor” value with mu opioid receptor is reported as “agonism”. In data set [4], the opioid agonist character result was “mixed mu/delta opioid agonists” and the “opioid receptor ligand selectivity” value is listed as “highly selective”. Also, in the data set with rodent test subjects [5], the muscle rigidity entry is “much reduced extent”. The ED50 in data set [6] came to 0.03 mg/kg.

Consider `C=CCN1C[C@H](C)N([C@@H](c2cccc(O)c2)c2cccc(C(=O)N(C)c3ccc(OC)cc3)c2)C[C@H]1C` [Example 30, (+)-3-((αR)-α-((2S,5R)-4-Allyl-2.5-dimethyl-1-piperazinyl)-3-hydroxybenzyl)-N-(4-methoxyphenyl)-N-methylbenzamide], for which, in the data set with rodent test subjects [1], the analgesia efficacy result is “efficacious in mediating analgesia” and the “analgesia compared with morphine” value is “comparable to mu-analgesic morphine”. Also, the respiratory depression entry with rodent test subjects [2] is on record as “much reduced extent”. For the same compound, the proconvulsant activity result with rodent test subjects [3] is “free of proconvulsant activity”. Besides, the “agonism at delta opioid receptor” value on delta opioid receptor was “agonism”. Moreover, the “agonism at mu opioid receptor” value in the data set on mu opioid receptor is given as “agonism”. In data set [4], the opioid agonist character entry is reported as “mixed mu/delta opioid agonists” and the “opioid receptor ligand selectivity” value was “highly selective”. Also, the muscle rigidity result with rodent test subjects [5] is “much reduced extent”.

`C=CCN1C[C@H](C)N([C@@H](c2cccc(O)c2)c2cccc(C(=O)N(C)c3ccccc3F)c2)C[C@H]1C` [Example 31, (+)-3-((αR)-α-((2S,5R)-4-Allyl-2,5-dimethyl-1-piperazinyl)-3-hydroxybenzyl)-N-(2-fluorophenyl)-N-methylbenzamide]: in the data set with rodent test subjects [1], the analgesia efficacy entry is given as “efficacious in mediating analgesia” and the “analgesia compared with morphine” value is given as “comparable to mu-analgesic morphine”. Also, the respiratory depression entry in the data set with rodent test subjects [2] is “much reduced extent”. Further, the proconvulsant activity entry with rodent test subjects [3] is “free of proconvulsant activity”. For the same compound, the “agonism at delta opioid receptor” value on delta opioid receptor is on record as “agonism”. For the same compound, in the data set with mu opioid receptor, the “agonism at mu opioid receptor” value is given as “agonism”. For the same compound, in data set [4], the opioid agonist character entry was “mixed mu/delta opioid agonists” and the “opioid receptor ligand selectivity” value is given as “highly selective”. The muscle rigidity result in the data set with rodent test subjects [5] is on record as “much reduced extent”.

Values taken from patent US5552404A, “Opioid compounds and methods for using same” (Delta Pharmaceuticals, Inc., priority 1995, dated 1996).
